Assay results reported in patent publication US12691097B2, “Methods and compositions for treating polyomavirus” (Brown University, priority 2022, dated 2026).
“Also recorded” adds a separate entry of the source.

Experiments:
[1] = tested on: ERK1/2; test: endogenous ERK phosphorylation, with or without PMA; format: cell-based
[2] = tested on: JCPyV; test: JCPyV infection, cells not stated (FIG. 1, FIG. 2); format: cell-based, JC polyomavirus
[3] = cytotoxicity in NHA cells; format: cell-based; conditions: human, read-out: 50% cytotoxic concentration (CC50)
[4] = tested on: JCPyV; test: long-term cell-to-cell spread of JCPyV; format: cell-based, JC polyomavirus; conditions: introduced after establishment of a productive infection
From the text: SI50 values are important metrics in drug discovery, and an SI50 greater than 10 is commonly considered to be an important starting point in drug development.

[5] = tested on: JCPyV; test: rescue of JCPyV infection by PMA cotreatment in SVG-A cells; format: cell-based, JC polyomavirus; conditions: SVG-A cells cotreated with PMA and GW-5074
[6] = tested on: PML; test: administration to patients with or at risk of PML (Examples 1-6); format: in vivo
From the text: The patient's difficulty in walking is decreased. […] The patient's facial drooping is decreased. […] The patient's loss of vision is decreased. […] The patient's seizures are decreased. […].

[7] = cytotoxicity in SVG-A cells; format: cell-based; conditions: human, read-out: 50% cytotoxic concentration (CC50)
[8] = tested on: human and simian polyomaviruses; test: initial infection by human and simian polyomaviruses (FIG. 4); format: cell-based
[9] = tested on: JCPyV; test: initial JCPyV infection in primary normal human astrocytes (NHA), indirect immunofluorescent quantification of viral proteins; format: cell-based, JC polyomavirus; conditions: pre-treatment
[10] = tested on: JCPyV; test: initial JCPyV infection in SVG-A glial cells, indirect immunofluorescent quantification of viral proteins; format: cell-based, JC polyomavirus; conditions: pre-treatment
[11] = tested on: JCPyV; parameters: unit not given beside the values; conditions: cells not given; cited from earlier work
[12] = patient with early signs of PML

O=C1Nc2ccc(I)cc2C1=Cc1cc(Br)c(O)c(Br)c1 [GW-5074, 3-(3,5-dibromo-4-hydroxybenzylidene)-5-iodoindolin-2-one]
endogenous ERK phosphorylation [1]: inhibits endogenous ERK1/2 phosphorylation; also recorded: inhibited endogenous ERK phosphorylation | restoration of ERK activity ([1]; coincubation with PKC agonist PMA): ERK activity could not be restored | initial JCPyV infection ([2]; FIG. 1, cells not stated): reduction in initial JCPyV infection | protective effect ([2]; FIG. 2): protective effect | CC50 [3]: > 20 µM | long-term cell-to-cell spread of JCPyV [4]: inhibition of viral spread; also recorded: inhibited long-term cell-to-cell spread of JCPyV | rescue of JCPyV infection [5]: JCPyV infection could not be rescued | development of PML ([6]; patient at risk for the development of PML): does not develop PML | difficulty in walking [6, 12]: decreased | facial drooping [6, 12]: decreased | loss of vision [6, 12]: decreased | loss of vision ([6]; patient with mid-stage PML): decreased | seizures ([6]; patient with mid-stage PML): decreased | CC50 [7]: > 100 µM | initial infection by human and simian polyomaviruses [8]: reduction of initial infection | IC50 ([9]; JC polyomavirus, Astrocyte, NHA cells, one round of productive infection, read-out: 50% inhibitory concentration (IC50)): 0.84 µM | initial JCPyV infection ([9]; primary normal human astrocytes, non-toxic concentrations): reduction of initial infection; also recorded: potently reduced initial JCPyV infection | IC50 ([10]; JC polyomavirus, SVG-A cells, one round of productive infection, read-out: 50% inhibitory concentration (IC50)): 6.8 µM | initial JCPyV infection ([10]; SVG-A glial cells, non-toxic concentrations): potently reduced initial JCPyV infection

Cc1ccc(C2Nc3ccccc3C(=O)N2c2ccccc2)s1 (stereo not shown) [Retro-2^cycl]
SI50 of established compounds with anti-JCPyV activity [11]: 7.4

CN(C)CCCN1c2ccccc2Sc2ccc(Cl)cc21 [chlorpromazine]
SI50 of established compounds with anti-JCPyV activity [11]: 2.0

OC(c1cc(C(F)(F)F)nc2c(C(F)(F)F)cccc12)C1CCCCN1 (stereo not shown) [mefloquine]
SI50 of established compounds with anti-JCPyV activity [11]: 4.0
